# Test results as given in PMC12491383, “Organ and tumour dosimetry of ^177Lu-rhPSMA-10.1, a novel PSMA-targeted therapy: results from a Phase I trial” (European Journal of Nuclear Medicine and Molecular Imaging, 2025).
# Several values for one entry are separate records, joined by “and”; a condition that tells them apart may be missing. Equal values may be shown once.
# Tests used:
# [1] = parameters: method as in PMID 37770108; details: within the same patient; compassionate use program in Germany; cited from earlier work
# [2] = Venous whole-blood radioactivity measurement (gamma counter): blood clearance and red marrow absorbed dose; format: in vivo, human
# Description: To assess the biodistribution and kinetics of radioactivity in individual tissues, whole blood and imaging-based radiation dosimetry were performed. Venous blood samples for radioactivity measurement were collected within the 30 min prior to ^177Lu-rhPSMA-10.1 administration, and at approximately 30 min, 1.5-, 4-, 24- and 48-hours post-administration in all treatment cycles. Samples were collected from the contralateral arm to that of the ^177Lu-rhPSMA-10.1 injection. Whole-blood concentrations were measured using a calibrated gamma counter to estimate both red marrow absorbed doses and blood clearance over time. All measurements were decay-corrected to the time of sample collection.
# (§1) All continuous data are expressed as the mean (standard deviation [SD]) unless otherwise stated. All blood- and image-based pharmacokinetic analyses were conducted in Python and Excel. Effective half-lives for organs and tumours were calculated using a mono-exponential fit to the washout phase of the time–activity data.
# [3] = Image-based effective and biological half-lives (mono-exponential fit to washout phase); format: in vivo, human; details: all cycles; for Biological Half-life, Tumours / Effective Half-life, Tumours: anatomy-based method
# Description: (§2) Multi-bed single-photon emission computed tomography (SPECT)/CT was conducted at 3-, 24-, 48- and 168-hours post-^177Lu-rhPSMA-10.1 administration in each treatment cycle for the estimation of organ and tumour absorbed doses in each patient. Prior to commencement of the study, each investigating site was required to complete a calibration of their dose calibrator and SPECT/CT system to ensure harmonised quantification of the imaging data. Quantitative reconstructions and all dosimetry analyses were carried out centrally by an independent dosimetry vendor (Radiopharmaceutical Imaging and Dosimetry LLC, Baltimore, MD).
# as §1
# Based on exponential fits to image-derived time–activity washout data in individual tissues (Fig. 5), the biological and effective half-lives of ^177Lu-rhPSMA-10.1 in tumours and normal organs were estimated using the mean data from all patients across all cycles (Supplemental Table S3).
# ^aTumour half-life values were derived from the anatomy-based method and averaged across all tumours and cycles (n = 137).
# [4] = Tumour dosimetry by SPECT/CT, activity-based and anatomy-based tumour selection and delineation; format: in vivo, human; details: for Tumour absorbed dose lower than Cycle 1 value, on average: anatomy-based
# Description: as §2
# The specific absorbed doses (Gy/GBq) in normal organs and tumours were determined using the Medical Internal Radiation Dose (MIRD) Committee S-value methodology. Individual patient organ masses, determined via CT delineation, were scaled to reflect deviations from reference phantom geometry. Cumulative organ absorbed doses (Gy) were calculated across all treatment cycles. Further details on dosimetry methodology are provided in the supplemental materials and have been reported in accordance with EANM guidance.
# Approach one was an activity-based method equivalent to that used in most studies that have evaluated tumour dosimetry with ^177Lu-labelled PSMA RLT [28]. For this method, up to three tumours were selected according to their relative visual uptake on the 168-hour SPECT/CT. Lesion contouring for volume/mass was performed based on a 41% SUVmax threshold on the corresponding PSMA PET/CT. These contours were manually transferred onto the SPECT images, making minor adjustments where necessary to the contour margins accounting for any activity spill out on the SPECT. This is illustrated in Supplemental Figure S1. The second method was anatomy-based, with up to five tumours selected in a blinded fashion on CT according to RECIST v1.1 criteria. Lesion volume and mass were determined via manual contouring on the CT and then directly transferred to the SPECT images. Where a common lesion was selected across both methods, the difference in tumour volume resulting from the two contouring methods was calculated.
# For the Cycle 1 tumour dosimetry, 36 lesions (27 bone and 9 lymph nodes) were analysed using the activity-based method, while 51 lesions (39 bone and 12 lymph nodes) were evaluated using the anatomy-based method. […] For each method, the mean tumour dose was determined by averaging the maximum tumour dose across all patients.
compound,measurement,setting,value
CC(C)(C)[Si](F)(c1ccc(C(=O)NC[C@@H](NC(=O)CN2CCN(CC(=O)[O-])CCN(CC(=O)[O-])CCN(CC(=O)[O-])CC2)C(=O)N[C@H](CCCCNC(=O)CCC(=O)NCCC[C@@H](NC(=O)CC[C@H](NC(=O)N[C@@H](CCC(=O)O)C(=O)O)C(=O)O)C(=O)O)C(=O)O)cc1)C(C)(C)C.[177Lu+3] [^177Lu-rhPSMA-10.1],"Radiation dose to the tumour relative to ^177Lu-PSMA-I&T, fold greater",[1],up to 8 fold
same,"Mean (SD) Absorbed Dose, bone marrow (blood-based)",[2]; All Cycles,0.032 Gy/GBq and 0.032 (0.010) Gy/GBq
same,"Mean (SD) Absorbed Dose, bone marrow (blood-based)","[2]; Cycle 1, 13 patients",0.031 (0.010) Gy/GBq
same,Effective half-life in blood,"[2]; venous whole blood, based on mean patient levels, mean (SD)",2.2 h
same,"Biological Half-life, Kidneys",[3]; Mean of 13 patients,44.9 hours
same,"Biological Half-life, Salivary Glands",[3]; Mean of 13 patients,64.6 hours
same,"Effective Half-life, Kidneys",[3]; Mean of 13 patients,33.7 h
same,"Effective Half-life, Salivary Glands",[3]; Mean of 13 patients,45.4 h
same,"Biological Half-life, Tumours",[3]; Mean of 13 patients,338 hours and 337.8 hours
same,"Effective Half-life, Tumours",[3]; Mean of 13 patients,91.4 h and 91 h
same,"Biological Half-life, Kidneys",[3]; Patient 1,123.6 hours
same,"Biological Half-life, Salivary Glands",[3]; Patient 1,120.2 hours
same,"Effective Half-life, Kidneys",[3]; Patient 1,69.6 h
same,"Effective Half-life, Salivary Glands",[3]; Patient 1,68.6 h
same,"Biological Half-life, Tumours",[3]; Patient 1,1692.5 hours
same,"Effective Half-life, Tumours",[3]; Patient 1,145.8 h
same,"Biological Half-life, Kidneys",[3]; Patient 2,52.3 hours
same,"Biological Half-life, Salivary Glands",[3]; Patient 2,54.2 hours
same,"Effective Half-life, Kidneys",[3]; Patient 2,39.4 h
same,"Effective Half-life, Salivary Glands",[3]; Patient 2,40.5 h
same,"Biological Half-life, Tumours",[3]; Patient 2,68.8 hours
same,"Effective Half-life, Tumours",[3]; Patient 2,48.1 h
same,"Biological Half-life, Kidneys",[3]; Patient 3,47.5 hours
same,"Biological Half-life, Salivary Glands",[3]; Patient 3,67.5 hours
same,"Effective Half-life, Kidneys",[3]; Patient 3,36.6 h
same,"Effective Half-life, Salivary Glands",[3]; Patient 3,47.4 h
same,"Biological Half-life, Tumours",[3]; Patient 3,305.1 hours
same,"Effective Half-life, Tumours",[3]; Patient 3,104.8 h
same,"Biological Half-life, Kidneys",[3]; Patient 4,35.9 hours
same,"Biological Half-life, Salivary Glands",[3]; Patient 4,84.7 hours
same,"Effective Half-life, Kidneys",[3]; Patient 4,29.3 h
same,"Effective Half-life, Salivary Glands",[3]; Patient 4,55.3 h
same,"Biological Half-life, Tumours",[3]; Patient 4,124.9 hours
same,"Effective Half-life, Tumours",[3]; Patient 4,70.1 h
same,"Biological Half-life, Kidneys",[3]; Patient 5,34.6 hours
same,"Biological Half-life, Salivary Glands",[3]; Patient 5,54.0 hours
same,"Effective Half-life, Kidneys",[3]; Patient 5,28.5 h
same,"Effective Half-life, Salivary Glands",[3]; Patient 5,40.3 h
same,"Biological Half-life, Tumours",[3]; Patient 5,168.9 hours
same,"Effective Half-life, Tumours",[3]; Patient 5,82.1 h
same,"Biological Half-life, Kidneys",[3]; Patient 6,38.7 hours
same,"Biological Half-life, Salivary Glands",[3]; Patient 6,61.3 hours
same,"Effective Half-life, Kidneys",[3]; Patient 6,31.2 h
same,"Effective Half-life, Salivary Glands",[3]; Patient 6,44.3 h
same,"Biological Half-life, Tumours",[3]; Patient 6,282.5 hours
same,"Effective Half-life, Tumours",[3]; Patient 6,102.0 h
same,"Biological Half-life, Kidneys",[3]; Patient 7,33.9 hours
same,"Biological Half-life, Salivary Glands",[3]; Patient 7,57.1 hours
same,"Effective Half-life, Kidneys",[3]; Patient 7,27.9 h
same,"Effective Half-life, Salivary Glands",[3]; Patient 7,42.1 h
same,"Biological Half-life, Tumours",[3]; Patient 7,316.6 hours
same,"Effective Half-life, Tumours",[3]; Patient 7,106.1 h
same,"Biological Half-life, Kidneys",[3]; Patient 8,34.9 hours
same,"Biological Half-life, Salivary Glands",[3]; Patient 8,61.5 hours
same,"Effective Half-life, Kidneys",[3]; Patient 8,28.6 h
same,"Effective Half-life, Salivary Glands",[3]; Patient 8,44.4 h
same,"Biological Half-life, Tumours",[3]; Patient 8,611.3 hours
same,"Effective Half-life, Tumours",[3]; Patient 8,126.6 h
same,"Biological Half-life, Kidneys",[3]; Patient 9,32.3 hours
same,"Biological Half-life, Salivary Glands",[3]; Patient 9,47.7 hours
same,"Effective Half-life, Kidneys",[3]; Patient 9,26.8 h
same,"Effective Half-life, Salivary Glands",[3]; Patient 9,36.7 h
same,"Biological Half-life, Tumours",[3]; Patient 9,204.8 hours
same,"Effective Half-life, Tumours",[3]; Patient 9,89.7 h
same,"Biological Half-life, Kidneys",[3]; Patient 10,28.7 hours
same,"Biological Half-life, Salivary Glands",[3]; Patient 10,59.0 hours
same,"Effective Half-life, Kidneys",[3]; Patient 10,24.3 h
same,"Effective Half-life, Salivary Glands",[3]; Patient 10,43.1 h
same,"Biological Half-life, Tumours",[3]; Patient 10,170.2 hours
same,"Effective Half-life, Tumours",[3]; Patient 10,82.4 h
same,"Biological Half-life, Kidneys",[3]; Patient 11,35.3 hours
same,"Biological Half-life, Salivary Glands",[3]; Patient 11,61.7 hours
same,"Effective Half-life, Kidneys",[3]; Patient 11,28.9 h
same,"Effective Half-life, Salivary Glands",[3]; Patient 11,44.5 h
same,"Biological Half-life, Tumours",[3]; Patient 11,148.2 hours
same,"Effective Half-life, Tumours",[3]; Patient 11,76.8 h
same,"Biological Half-life, Kidneys",[3]; Patient 12,54.5 hours
same,"Biological Half-life, Salivary Glands",[3]; Patient 12,53.6 hours
same,"Effective Half-life, Kidneys",[3]; Patient 12,40.6 h
same,"Effective Half-life, Salivary Glands",[3]; Patient 12,40.1 h
same,"Biological Half-life, Tumours",[3]; Patient 12,152.4 hours
same,"Effective Half-life, Tumours",[3]; Patient 12,78.0 h
same,"Biological Half-life, Kidneys",[3]; Patient 13,31.6 hours
same,"Biological Half-life, Salivary Glands",[3]; Patient 13,57.8 hours
same,"Effective Half-life, Kidneys",[3]; Patient 13,26.4 h
same,"Effective Half-life, Salivary Glands",[3]; Patient 13,42.4 h
same,"Biological Half-life, Tumours",[3]; Patient 13,145.7 hours
same,"Effective Half-life, Tumours",[3]; Patient 13,76.2 h
same,"Tumour absorbed dose lower than Cycle 1 value, on average","[4]; Cycle 2, 11 patients with multiple cycles",~ 37% and 37%
same,"Tumour absorbed dose lower than Cycle 1 value, on average",[4]; Cycle 3,~ 56% and 56%
same,"Maximum tumour absorbed dose, range across patients","[4]; activity method, Cycle 1",2.00–25.7 Gy/GBq
same,Mean (SD) maximum tumour absorbed dose,"[4]; activity method, Cycle 1",8.87 Gy/GBq and 8.87 (6.71) Gy/GBq
same,"Mean therapeutic index, ratio of tumour-to-kidney absorbed doses","[4]; activity method, Cycle 1",32.1
same,Mean tumour-to-salivary gland absorbed dose ratio,"[4]; activity method, Cycle 1",73.2
same,"Maximum tumour absorbed dose, range across patients","[4]; anatomy method, Cycle 1",0.37–6.67 Gy/GBq
same,Mean (SD) maximum tumour absorbed dose,"[4]; anatomy method, Cycle 1",2.38 (1.78) Gy/GBq and 2.38 Gy/GBq
